Patent US9499554B2, “Anti-influenza compositions and methods” (priority 2013, dated 2016)
In brackets after ≈: the same amount, converted by molar mass. Like-named read-outs stand apart in the source and are kept apart here.

How the values were obtained:
[1] = tested on: Influenza A H5N1 VN/1203/2004 Hybrid (on H1N1 backbone); experiment: microbe, parasite or virus in culture; assay type: cell-based; conditions: Influenza A virus, read-out: EC50, Visual CPE Assay
[2] = tested on: Influenza A H5N1 VN/1203/2004 Hybrid (on H1N1 backbone); experiment: microbe, parasite or virus in culture; assay type: cell-based; conditions: Influenza A virus

In the case of `Nc1ncnc2c([C@@H]3N[C@H](CO)[C@@H](O)[C@H]3O)c[nH]c12` [compound 1, (2S,3S,4R,5R)-2-(4-Amino-5H-pyrrolo[3,2-d]pyrimidin-7-yl)-5-(hydroxymethyl)pyrrolidine-3,4-diol], the EC50 [1] was 0.63 µg/mL (≈ 2.37 µM), the EC50 ([2]; MDCK, read-out: EC50, antiviral activity in MDCK cells) was 0.99 µg/mL (≈ 3.73 µM) and the EC50 ([2]; read-out: EC50, Neutral Red Uptake Assay) was 0.99 µg/mL (≈ 3.73 µM).
